Reference: a melting point compilation (Tetko et al.; mined from patent text by program, amines drawn as free bases though some values may be those of a salt)
Residues, ends and D or L forms follow the SMILES beside them. *: point of attachment. Cbz = O=C(OCc1ccccc1)*

Row | melting point [°C] | Structure (SMILES)
1 | 260 to 263 | O=C1C(c2c[nH]c3ccccc23)C(c2c[nH]c3ccccc23)C(=O)N1c1ccccc1 (centres undefined)
2 | 249 to 250 | CCOC(=O)Cn1c(=O)[nH]c(=O)c2ccccc21
3 | 218 to 219 | COc1ccc(C#Cc2cc(Cl)cc3c2OC(C(F)(F)F)C(C(=O)O)=C3)cc1 (centres undefined)
4 | 54 to 56 | CC(C)(Oc1ccc(CCC(O)c2ccc(-c3ccc(C(F)(F)F)cc3)s2)c(Cl)c1Cl)C(=O)O (centres undefined)
5 | 264 to 266 | Nc1cccc(-c2n[nH]c3ncnc(Nc4cccc(Cl)c4)c23)c1
6 | 139 to 140 | COc1ccc(C2=NN(CCCCN3C(=O)c4ccccc4C3=O)C(=O)[C@H]3CC=CC[C@@H]23)cc1OC (relative stereo)
7 | 150 to 152 | O=C(OC1CCc2c(c3ccccc3n2Cc2ccc(Cl)cc2)C1)c1ccccc1 (centres undefined)
8 | 95 to 101 | COc1ccccc1NC(=O)Nc1nc(NC(C)C)nc(N(CCC(=O)O)Cc2ccc(Cl)c(Cl)c2)n1
9 | 158 to 160 | O=C(O)COc1ccc(Cn2nnc(-c3cccc(C#CCc4ccc(F)cc4)c3)n2)cc1
10 | 132 to 135 | OCc1ccc(-c2ccccc2-c2nnn[nH]2)cc1
11 | 238 to 242 | O=C(O)CN1C(=O)C(=Cc2ccccc2Cl)SC1=S
12 | 210 to 212 | CN(CCCNC(=O)c1cccc2nc3ccc(Cl)cc3nc12)CCCNC(=O)c1cccc2nc3ccc(Cl)cc3nc12
13 | 257 | CCCCc1nc2c(N)nc3ccc(OCC(=O)N4CCOCC4)cc3c2n1C
14 | > 250 | Nc1nc(O)c2cc(C=Cc3ccc(C(=O)O)cc3)cnc2n1
15 | 208 to 210 | COc1ccc(Cn2c(=O)ccc3cnc(Cl)cc32)cc1Cl
16 | 207 to 209 | O=C(NC1CCCC1)c1cccc(-c2ccnc3c(C(=O)c4cccs4)cnn23)c1
17 | 131 to 133 | CCC(C)(Oc1ccc(CC(=O)Nc2cc(C)cc(C)c2)cc1)C(=O)O (centres undefined)
18 | 131 to 133 | Cc1ccc(S(=O)(=O)N2CCC[C@H](CC(=O)NC(C)C)c3ccccc32)cc1
19 | 149 to 152 | COC(=O)C(Cc1ccc(O)cc1)NC(=O)C(CO)NC(=O)C(Cc1c[nH]c2ccccc12)NC(=O)OCc1ccccc1 (stereo not drawn) (Cbz-Trp-Ser-Tyr-OMe; configuration not given here)
20 | 143 to 145 | O=C(NCCCCCCCCc1ccccc1)c1cc(-c2cccc(C(F)(F)F)c2)c(OCCO)c(-c2cccc(C(F)(F)F)c2)c1
21 | 209 to 210 | O=C(CBr)c1ccc2oc3ccc(C(=O)CBr)cc3c(=O)c2c1
22 | 220 to 221 | COc1ccn2c(C)c(CCc3ccc4nc(N)oc4c3)nc2c1
23 | 99 to 100 | O=[N+]([O-])c1ccccc1C(=C(Br)Br)c1ccc(F)cc1
24 | 102 to 103 | Brc1cccc2c1Cc1ccccc1-2
25 | 130 to 131 | CCCCN(CCCC)CCCOc1ccc(S(=O)(=O)c2c(C3CCCCC3)cn3ccccc23)cc1
26 | 158 | CC(=O)c1c[nH]c(-c2ccccc2)n1

Row | melting point [°C] | Structure (SMILES)
27 | 140 | COc1ccc2c(c1)C(c1ccccc1)=Nn1c(C)cnc1C2
28 | 145 to 146 | CC(C)C[C@H](N[C@H](CC(C)C)C(=O)OCc1ccccc1)C(=O)N[C@@H](Cc1ccccc1)C(N)=O
29 | 113 to 116 | CCOP(=O)(CC(=O)Nc1cc2c(Nc3ccc(OCc4ccccn4)c(Cl)c3)ncnc2cn1)OCC
30 | 138 to 141 | CC1(c2ccc(CNC(=O)CCl)cc2)Cc2cc(OCC(=O)O)c(Cl)c(Cl)c2C1=O (centres undefined)
31 | 138 | COc1cc(-c2nc3ccc(OCCCN4CCCCC4)cc3n2Cc2ccccc2C(F)(F)F)cc(OC)c1OC
32 | 60 to 62 | CC(C)(C)c1cn(Cc2ccccc2)c([C@@H](Cc2c[nH]c3ccccc23)NCc2ccccc2)n1
33 | 136 to 138 | COC(=O)CCn1c(C)c(Cn2ccnc2)c2c(CCC(=O)O)cccc21
34 | 170 to 171 | CCOc1cc(-c2ccccc2)nc2nn(C)cc12
35 | 92 to 93 | CC(C)c1nn(-c2ccc(C(F)(F)F)cc2)cc1COc1cccc(CC(=O)O)c1
36 | 183 to 186 | CCCOc1ccc(S(=O)(=O)N2CCN(CC)CC2)cc1-c1nc2cc(N)c(N)cc2c(=O)[nH]1
37 | 270 | CC1=NN(c2ccc(C(=O)O)cc2)C(=O)C1=CNc1ccccc1C(C)C
38 | 103 to 104 | O=C1NCCN(Cc2ccc(Cl)cc2)C1c1ccccc1 (centres undefined)
39 | 106 to 109 | CCCCCCCCCCOc1cc(OCCCOc2ccc(O)cc2)cc(C(=O)O)c1
40 | 221 to 222 | Cc1ccccc1-c1c(NC(=O)Nc2c(C)cccc2C)c(=O)oc2c(F)cc(F)cc12
41 | 87 | OCCON=Cc1ccc2ccccc2c1
42 | 155 to 158 | O=c1[nH]c2ccccc2cc1CN1CC=C(Cc2ccccc2)CC1
43 | 178 | O=C(NC(=O)C(c1ccccc1)c1ccccc1)C1CC1
44 | 226 | Oc1ccc2nc(-c3ccc4ccccc4c3)oc2c1
45 | 172 to 174 | Nc1c(-c2ccc(Cl)cc2Cl)nnn1Cc1ccc(O)cc1
46 | 186 to 188 | Nc1nc2ccccc2c2c1ncn2CCOCCCc1ccccc1C(=O)O
47 | 184 | CC(C)N1CCC(C(=O)OC2c3ccccc3C(=O)N2c2ccc3ccc(Cl)nc3n2)CC1 (centres undefined)
48 | 164 | O=C(c1ccc(F)cc1)C1CCN(CCn2c(=O)[nH]c3ccccc32)CC1
49 | 155 to 160 | O=C(Nc1cccc(F)c1F)c1ccc(-n2nc(C(F)(F)F)cc2C2CC2)nc1
50 | 73 to 75 | CCOC(=O)c1cnoc1-c1ccc(-c2ccccc2)cc1
51 | 76.7 | CC(O)c1cc(Br)ccc1OCc1ccccc1 (centres undefined)

Second part, the compound before the results:

Row | Structure (SMILES) | melting point [°C]
52 | CNC(=O)c1cccc(Nc2nc(Nc3ccc4c(c3)C(C)(C)CCC(=O)N4)ncc2Cl)c1 | 184
53 | CCNc1nc(SC)ncc1CNc1cc(OC)cc(OC)c1 | 100 to 105
54 | Cc1c(NC(=O)CC(C)(C)C)c(C)c2c(c1-c1ccoc1)OCC2c1ccc(C(C)C)cc1 (centres undefined) | 183 to 185
55 | CC1(C)COC(c2ccc(-c3ccc4cc(O)ccc4c3)cc2)=N1 | 221 to 223
56 | CC(=O)Nc1ccc2nc(NC3=NCCN3)[nH]c2c1 | 294
57 | N#Cc1cccc(C(F)(F)F)c1O | 134
58 | O=c1[nH]c2cccnc2o1 | 252
59 | FC(F)(F)c1cccc(-c2nnc(Cl)cc2Cl)c1 | 80 to 81.5
60 | Cc1cc(Nc2ccnc(Cl)n2)ccc1F | 130 to 131
61 | CCOC(=O)c1cn(CCCl)c2nc(N3CCN(C(=O)OCC)CC3)c(F)cc2c1=O | 143 to 144
62 | O=C1CCCCCCCCCCCCCCC1 | 67.7
63 | CC(C)(C)OC(=O)N1CCC(NC(=O)c2ccc(-n3cccn3)cc2)CC1 | 170 to 171
64 | CC(C)(C)OC(=O)NC1CCCCCC=CC2CC2(C(=O)NS(=O)(=O)C2CC2)NC(=O)C2CC(OC(=O)c3ccc(C#N)cc3)CN2C1=O (centres undefined) | 164 to 166
65 | CN1CCN(NC(=O)Nc2cccc3c2C(=O)c2c-3n[nH]c2-c2ccc(N(C)C)cc2)CC1 | > 300
66 | C[C@@H](O)C(O)(Cn1ccnc1)c1ccc(F)cc1F (some centres undefined) | 73 to 76
67 | C=CCN1C(=O)NCC1c1ccc(OC)c(OC2CC3CCC2C3)c1 (centres undefined) | 110 to 113
68 | CC(C)(C)c1cc(-c2n[nH]c(=S)[nH]2)cc(C(C)(C)C)c1O | 271
69 | Cc1cc(C)c2nc(C)n(Cc3ccc(NCC4CCN(C5CCN(C)CC5)CC4)cc3)c2n1 | 118 to 120
70 | Fc1ccccc1N1CCN(c2ccc(Cl)nn2)CC1 | 148
71 | O=C(N1CCC(O)(c2ccccc2)CC1)C(F)(F)F | 123 to 125
72 | CCOC(=O)Nc1ccc(-c2cccs2)s1 | 76
73 | O=C(c1c[nH]c2cc(O)ccc12)C1CSC(c2cccnc2)N1 (centres undefined) | 203 to 205
74 | O=C1CCOc2cc(F)ccc21 | 61 to 62
75 | COC1=CC(=O)C2CC=CCC2C1=O (centres undefined) | 120 to 122

Row | Structure (SMILES) | melting point [°C]
76 | O=C(O)c1ccc2c(c1)C=C(CCN1CCCC1)CC2 | 202 to 203
77 | CCC(=O)NCCC1CCc2ccc3c(c21)NC(=O)CO3 (centres undefined) | 216 to 219
78 | CCOC(=O)C(C)(C)n1c(=O)[nH]c2c(OC)cccc2c1=O | 144 to 145
79 | Cc1c(C)c2c(c(C)c1N)OC(C)(C)C2Cc1ccccc1 (centres undefined) | 75 to 76
80 | Cn1c2ccc(F)cc2c(=O)n2nc(C(N)=O)cc12 | > 350
81 | Cc1cc(Oc2c(Cl)cc(C(F)(F)F)cc2Cl)nn1C(=O)NOC(C)(C)C | 92 to 94
82 | [N-]=[N+]=C1c2ccccc2-c2ccc(Cl)cc21 | 102 to 108
83 | CCC[C@H]1CCC[C@H](N2C(=O)c3ccccc3C2=O)C(=O)N1 | 146 to 151
84 | CCON=C(CC)C1=C(O)CC(c2c(C)c3c(c(C)c2Cl)CC(C)(CC)C3)CC1=O (centres undefined) | 56 to 58
85 | Oc1ccc(CCc2cc(O)c(O)c(O)c2)cc1 | 180 to 188
86 | Cc1cn(C[C@H]2CC[C@@H](CO)O2)c(=O)[nH]c1=O | 133 to 135
87 | CC(C)Sc1cn(C)cc(-c2cccc(C(F)(F)F)c2)c1=O | 93 to 94
88 | CCOC(=O)ONC(=N)c1cc(C(C)(C)C)c(OCOCCOC)c(C(C)(C)C)c1 | 115 to 117
89 | CC(=O)Nc1ccc(S(=O)(=O)c2ccc(Br)cc2)cc1 | 195 to 199
90 | O=C(O)c1ccc2c(c1)COCC2 | 140 to 142
91 | Cc1ncc(CO)c(CN(C)C)c1O | 146 to 151
92 | Cc1cc2c(nc3n2CCC3)c([N+](=O)[O-])c1Br | 201 to 203
93 | COC(=O)C(=C1SC=CS1)S(=O)(=O)C(C)C | 141 to 142
94 | COC(=O)C1CC2C3CCc4cc(O)ccc4C3CCC2(C)C1=O (centres undefined) | 215 to 217
95 | FC(F)(F)c1cc(Cl)c(-n2cc(I)nn2)c(Cl)c1 | 194 to 195
96 | CC(C)(C)c1cc(CN(c2cccnc2)S(=O)(=O)c2cccc([N+](=O)[O-])c2)cc(C(C)(C)C)c1O | 99 to 107
97 | COC(=O)CCC(=O)c1ccc(OC)c(CCl)c1 | 78 to 80
98 | Nc1nc(Cl)nc2c1ncn2C1CCCCC1 | 206 to 209
99 | CC=C1OC(=O)c2c(OC)cccc21 | 106 to 109
